Columns and labels:
FLuc-C-HiBiT = target: T1, FLuc-C-HiBiT (Photinus pyralis, UniProt P08659); test: biochemical; conditions: enzyme activity, 10 uM ATP; read-out: IC50 or SDR50 (mM) / FLuc E
T1 construct: firefly luciferase with C-terminal HiBiT tag, E. coli expressed

[1] = target: FLuc-N-HiBiT (firefly luciferase) (Photinus pyralis, UniProt P08659, form not given/L550V); test: SDR assay, FLuc-N-HiBiT; conditions: substituted indoline (clade A'); for % Activity (max response, + ATP) / % Activity (max response, - ATP): SDR
Sequence of FLuc-N-HiBiT (firefly luciferase) (P08659 2-550 L550V, form open): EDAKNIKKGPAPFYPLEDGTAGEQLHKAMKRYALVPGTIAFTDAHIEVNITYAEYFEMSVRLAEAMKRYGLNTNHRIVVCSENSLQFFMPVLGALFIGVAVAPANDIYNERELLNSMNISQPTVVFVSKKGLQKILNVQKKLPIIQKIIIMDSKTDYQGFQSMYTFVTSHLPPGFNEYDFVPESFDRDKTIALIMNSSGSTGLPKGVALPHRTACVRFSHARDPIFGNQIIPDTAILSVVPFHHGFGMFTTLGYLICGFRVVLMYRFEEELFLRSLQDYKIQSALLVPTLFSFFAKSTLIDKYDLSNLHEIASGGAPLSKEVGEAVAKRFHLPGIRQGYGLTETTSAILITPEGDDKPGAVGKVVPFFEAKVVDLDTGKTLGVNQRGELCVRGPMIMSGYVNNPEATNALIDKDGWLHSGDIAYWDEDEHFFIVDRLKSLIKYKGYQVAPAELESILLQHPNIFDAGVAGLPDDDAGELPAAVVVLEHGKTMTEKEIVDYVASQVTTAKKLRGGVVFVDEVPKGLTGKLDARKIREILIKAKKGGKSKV

P. pyralis FLuc = P. pyralis FLuc (Photinus pyralis, UniProt P08659); test: FLuc enzymatic luminescence assay, P. pyralis FLuc; assay type: biochemical; conditions: FLuc enzymatic assay; for Efficacy (%) FLuc E: Clade S follow-up; for IC50: read-out: IC50 or SDR50 (mM) FLuc E
Sequence of P. pyralis FLuc (P08659 whole entry): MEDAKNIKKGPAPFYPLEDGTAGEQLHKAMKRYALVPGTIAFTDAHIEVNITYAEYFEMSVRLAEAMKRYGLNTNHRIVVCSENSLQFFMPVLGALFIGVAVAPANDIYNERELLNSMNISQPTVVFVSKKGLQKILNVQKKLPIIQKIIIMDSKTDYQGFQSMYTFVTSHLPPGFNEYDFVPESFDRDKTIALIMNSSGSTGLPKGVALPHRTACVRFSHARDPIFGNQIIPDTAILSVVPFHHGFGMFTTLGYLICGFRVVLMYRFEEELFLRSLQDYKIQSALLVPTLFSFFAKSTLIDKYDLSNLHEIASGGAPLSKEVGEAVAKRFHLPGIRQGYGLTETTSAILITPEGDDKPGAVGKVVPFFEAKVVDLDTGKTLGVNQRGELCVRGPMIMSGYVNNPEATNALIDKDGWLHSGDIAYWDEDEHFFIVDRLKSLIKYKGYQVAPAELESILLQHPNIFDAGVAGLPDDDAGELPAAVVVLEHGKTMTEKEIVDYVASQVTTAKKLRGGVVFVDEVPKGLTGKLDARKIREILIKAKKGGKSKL
Experimental: The enzyme activity of FLuc-N-HiBiT, FLuc-C-HiBiT, and FLuc-C-NLuc was measured similar to P. pyralis firefly luciferase (FLuc) as previously described. […] Compounds and controls were added to each plate as described in Supplementary Data 8 with a Hornet pintool system (Wako Automation). Compounds were incubated with respective enzymes for 30–60 min at room temperature protected from light and covered by solid metal lid to prevent evaporation. […] Luciferin was incubated with FLuc enzyme for 5 min before FLuc activity was then measured on a ViewLux CCD imager (PerkinElmer), with exposure times up to ten seconds with medium to high gain settings. Data were normalized to average no enzyme control as 100% enzyme inhibition and average DMSO neutral control. See Supplementary Table 4 for additional details.
Assays were run in the presence (solid symbols) or absence
(open symbols) of 10 µM ATP. Corresponding SMIL E S for NC GC IDs and source data are provided in
Supplementary Data 3 and as a Source Data file. 10
Supplementary Table 4. Protocol for Firefly luciferase (FLuc) and NanoLuc (NLuc) enzymatic
Supplementary Table 4: Protocol for Firefly luciferase (FLuc) and NanoLuc (NLuc) enzym atic lum inescence assay
Firefly luciferase (FLuc) enzym atic lum inescence assay
Sequence Param eter Value Description
No enzym e control (colum n 1) and enzym e solution (1- 10 nM FLuc enzym e) in FLuc assay
1 Reagent 4 µLbuffer; white/solid bottom , m edium bind, high base plates (Greiner), dispensed with BioRaptr
com pounds transferred to respective colum ns with Pintool
2b Test Com pounds 23 nLconcentration range) in colum ns 5- 48; com pounds transferred to respective wells with
3 Incubation 30 m in Incubate enzym e + com pounds at am bient tem p for 30 m in, protected from light
4 Reagent 3 µLAdd 3 µL of D-luciferin substrate solution to each well (final concentration 10 µM); dispensed
(§1) 5 Detector ViewLux Read plate lum inescence (Exposure = 1- 10 sec; Gain = Medium -high; Speed = Slow;
Dispensing solution was diluted in 1X PBS, pH 7.4. […]

[2] = target: FLuc-C-HiBiT (firefly luciferase) (Photinus pyralis, UniProt P08659, form not given/L550V); test: SDR assay, FLuc-C-HiBiT; conditions: SDR max. response, clade S
Sequence of FLuc-C-HiBiT (firefly luciferase) (P08659 2-550 L550V, form open): as the sequence (P08659 2-550 L550V, form open) above

NLuc = target: T2, NLuc (Oplophorus gracilirostris, UniProt Q9GV45, A31E/A60N/A81I/F95D/I117V/K70R/L54V/L99Q/M102K/N193R/P142E/Q151K/Q38R/Q45L/V71I/Y165I); assay type: biochemical; conditions: - ATP
T2 construct: His tag (inferred from IMAC purification); made in house; host or cells: E. coli
T2 sequence (Q9GV45 other isoform, or with tags, fused parts or gaps with the stated changes): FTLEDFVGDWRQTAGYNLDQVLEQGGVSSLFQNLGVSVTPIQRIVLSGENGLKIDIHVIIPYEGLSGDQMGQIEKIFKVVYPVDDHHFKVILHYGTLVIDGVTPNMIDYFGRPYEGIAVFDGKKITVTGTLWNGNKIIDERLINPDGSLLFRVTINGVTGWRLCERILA
Experimental: Compounds and controls were added to plates as described in Supplementary Data 8. Nano-Glo luciferase assay reagent (Promega) was prepared fresh according to manufacturer’s protocol, filtered and added at 3 μL per well across assay plates with a BioRaptr2 dispenser. Enzyme was incubated with Nano-Glo reagent for 10 min and NLuc luminescence was read on a ViewLux CCD imager (PerkinElmer), with 1 s exposure with medium gain and 2x binning. Data were normalized to average no enzyme control as 100% enzyme inhibition and average DMSO neutral control. See Supplementary Table 4 for additional details.
Supplementary Table 4. […]
Sequence Param eter Value Description […]
as §1
Dispensing solution was diluted in 1X PBS, pH 7.4.
NanoLuc luciferase (NLuc) enzym atic lum inescence assay […]
Nano-Glo luciferase assay reagent (Prom ega, Cat # N1120) prepared according to m anufacturer’s recom m endations,
4 com ponents stored at -30 °C until use, and reagent prepared fresh for each assay.
syringe filter prior to dispense.

[3] = target: FLuc-C-NLuc (firefly luciferase) (Photinus pyralis, UniProt P08659, form not given/L550V); test: SDR assay, FLuc-C-NLuc; conditions: - ATP
Sequence of FLuc-C-NLuc (firefly luciferase) (P08659 2-550 L550V, form open): as the sequence (P08659 2-550 L550V, form open) above

T1 sequence (P08659 whole entry, looked up): as the sequence (P08659 whole entry) above

| Compound | IC50 (FLuc-C-HiBiT) [nM] | % Activity (max response, + ATP) ([1]; + ATP) [%] | % Activity (max response, - ATP) ([1]; - ATP) [%] | pSDR50 (clade A') ([1]; + ATP) | pSDR50 (clade A') ([1]; - ATP) | pIC50 or pSDR50 FLuc E (P. pyralis FLuc) | Efficacy (%) FLuc E (P. pyralis FLuc) [%] | IC50 (P. pyralis FLuc) [mM] | % Activity (max response, + ATP) [2] [%] | % Activity (max response, - ATP) [2] [%] | Efficacy (%) NLuc (- ATP) (NLuc) [%] | Efficacy (%) FLuc-C-NLuc SDR (-ATP) [3] [%] |
| --- | --- | --- | --- | --- | --- | --- | --- | --- | --- | --- | --- | --- |
| CCN1CCN(CCNC(=O)c2cccc3c2CCN3C(=O)Nc2ccc(C)cc2)CC1 [NCGC00430114-01] | 1110 | 125.50 | 93.19 | 5.79 | 4.11 | – | – | – | – | – | – | – |
| CCCNC(=O)c1cccc2c1CCN2C(=O)Nc1cccc(C)c1 [NCGC00430116-01] | 2480 | 115.10 | 34.94 | 5.48 | 3.57 | – | – | – | – | – | – | – |
| Cc1cccc(NC(=O)N2CCc3c(C(=O)N4CCN(C)CC4)cccc32)c1 [NCGC00430118-01] | 1760 | 120.00 | 22.45 | 5.59 | 3.92 | – | – | – | – | – | – | – |
| CCC(C)(C)NC(=O)c1cccc2c1CCN2C(=O)Nc1cccc(C)c1 [NCGC00430120-01] | 7850 | 86.92 | 21.61 | 4.90 | 2.52 | – | – | – | – | – | – | – |
| Cc1cccc(NC(=O)N2CCc3c(C(=O)NC(C)(C)C)cccc32)c1 [NCGC00430124-01] | 8810 | 30.08 | 45.88 | 3.69 | 4.31 | – | – | – | – | – | – | – |
| COc1ccc(NC(=O)N2CCc3c(C(=O)NCCCN4CCCC4=O)cccc32)cc1 [NCGC00430130-01] | 248 | 129.70 | 57.00 | 6.47 | 4.44 | – | – | – | – | – | – | – |
| COc1ccc(NC(=O)N2CCc3c(C(=O)NCCN4CCCCCC4)cccc32)cc1 [NCGC00430136-01] | 556 | 125.00 | 26.27 | 6.10 | 3.93 | – | – | – | – | – | – | – |
| COc1ccc(NC(=O)N2CCc3c(C(=O)N(C)Cc4ccco4)cccc32)cc1 [NCGC00430138-01] | 1760 | 125.10 | 31.17 | 5.60 | 3.60 | – | – | – | – | – | – | – |
| O=C(NCc1ccco1)c1cccc2c1CCN2C(=O)Nc1ccc(F)cc1 [NCGC00430142-01] | 1110 | 118.20 | 37.02 | 5.76 | 3.81 | – | – | – | – | – | – | – |
| O=C(O)c1cccc2c1CCN2C(=O)Nc1ccc(F)cc1 [NCGC00432687-01] | 3.51 | 127.90 | 102.18 | 8.36 | 4.92 | – | – | – | – | – | – | – |
| O=C(NC1CCCCCC1)C1CCN(C(=O)c2ncn3c2COC(c2ccccc2)C3)CC1 (stereo not shown) [NCGC00449769-01] | – | – | – | – | – | 5.26 | -80.74 | 0.00555 | 369.53 | 0.00 | 0.00 | 0.00 |
| O=C(NC1CCCCCCC1)C1CCN(C(=O)c2ncn3c2COC(c2ccccc2)C3)CC1 (stereo not shown) [NCGC00449770-01] | – | – | – | – | – | 5.16 | -92.12 | 0.00699 | 338.48 | 0.00 | 0.00 | 0.00 |

Continued, in another order:

| IC50 (FLuc-C-HiBiT) [nM] | % Activity (max response, + ATP) ([1]; + ATP) [%] | % Activity (max response, - ATP) ([1]; - ATP) [%] | pSDR50 (clade A') ([1]; + ATP) | pSDR50 (clade A') ([1]; - ATP) | Compound | pIC50 or pSDR50 FLuc E (P. pyralis FLuc) | Efficacy (%) FLuc E (P. pyralis FLuc) [%] | IC50 (P. pyralis FLuc) [mM] | % Activity (max response, + ATP) [2] [%] | % Activity (max response, - ATP) [2] [%] | Efficacy (%) NLuc (- ATP) (NLuc) [%] | Efficacy (%) FLuc-C-NLuc SDR (-ATP) [3] [%] |
| --- | --- | --- | --- | --- | --- | --- | --- | --- | --- | --- | --- | --- |
| 1570 | 123.10 | 25.03 | 5.71 | 5.51 | CCCCNC(=O)c1cccc2c1CCN2C(=O)Nc1ccccc1 [NCGC00430146-01] | – | – | – | – | – | – | – |
| 700 | 120.00 | 17.07 | 5.93 | – | CN(C)CCNC(=O)c1cccc2c1CCN2C(=O)Nc1ccccc1 [NCGC00430150-01] | – | – | – | – | – | – | – |
| 351 | 123.10 | 78.58 | 6.37 | 4.88 | CNC(=O)c1cccc2c1CCN2C(=O)Nc1ccc(C)cc1 [NCGC00430160-01] | – | – | – | – | – | – | – |
| 49.5 | 127.00 | 89.24 | 7.11 | 5.17 | Cc1ccc(NC(=O)N2CCc3c(C(=O)NCc4ccco4)cccc32)cc1 [NCGC00430166-01] | – | – | – | – | – | – | – |
| 4420 | 131.70 | 51.01 | 4.89 | 4.36 | Cc1ccc(NC(=O)N2CCc3c(C(=O)NCCc4ccccn4)cccc32)cc1 [NCGC00430168-01] | – | – | – | – | – | – | – |
| 624 | 125.10 | 68.63 | 6.06 | 4.73 | COc1ccc(NC(=O)N2CCc3c(C(=O)NCc4ccncc4)cccc32)cc1 [NCGC00430180-01] | – | – | – | – | – | – | – |
| 111 | 126.00 | 37.35 | 6.80 | 4.62 | COc1ccc(NC(=O)N2CCc3c(C(=O)N(C)C)cccc32)cc1 [NCGC00430182-01] | – | – | – | – | – | – | – |
| 556 | 119.00 | 13.12 | 6.16 | – | COc1ccc(NC(=O)c2cccc3c2CCN3C(=O)Nc2ccc(F)cc2)c(C)c1 [NCGC00430188-01] | – | – | – | – | – | – | – |
| 221 | 119.50 | 23.04 | 6.44 | 2.73 | O=C(NCCc1cccnc1)c1cccc2c1CCN2C(=O)Nc1ccc(F)cc1 [NCGC00430192-01] | – | – | – | – | – | – | – |
| 785 | 108.30 | 19.81 | 5.86 | – | O=C(NCCc1cccs1)c1cccc2c1CCN2C(=O)Nc1ccc(F)cc1 [NCGC00430196-01] | – | – | – | – | – | – | – |
| 3940 | 116.90 | 14.79 | 5.19 | – | CN(C)C(=O)c1cccc2c1CCN2C(=O)Nc1ccc(F)cc1 [NCGC00430198-01] | – | – | – | – | – | – | – |
| > 30000 | 19.35 | 9.26 | – | – | CCC(=O)N1CCc2c(C(=O)O)cccc21 [NCGC00432605-01] | – | – | – | – | – | – | – |
| 3940 | 65.64 | 14.85 | 5.66 | – | O=C(O)c1cccc2c1CCN2C(=O)c1ccccc1 [NCGC00432607-01] | – | – | – | – | – | – | – |
| 1760 | 81.35 | 20.90 | 5.89 | 4.16 | O=C(O)c1cccc2c1CCN2C(=O)c1ccc(F)cc1 [NCGC00432675-01] | – | – | – | – | – | – | – |

From article PMC12064818, “A general assay platform to study protein pharmacology using ligand-dependent structural dynamics” (Nature Communications, 2025)
